A short description of the data set: Human HepG2 cell viability assay in 384 well format. The format is toxicity, cell-based. On the set-up: dose 125 nL, time 70.5 hour; cytotoxicity at 70.5 h: concentration not given beside the values. The note with it: HepG2 cells, read-out: Inhibition.
Regarding `N#Cc1ncn(CCS(=O)(=O)c2ccc(Cl)cc2)n1`, the cytotoxicity at 70.5 h stood at 2.53%.

In the case of `CC(C1CCN(Cc2c(Cl)cncc2Cl)CC1)N1CCN(C)CC1` (centres undefined), the cytotoxicity at 70.5 h amounted to 14.7%. In the case of `CCNC(=O)CN1CCc2c(Br)ccc(F)c2C1` it was 5.62%; in that of `Cc1nc(CN2CCOCC3(CCCN(c4cnccn4)C3)C2)cs1` (centres undefined), -2.38%; in that of `Cc1nc(CN2CCC(N(C)Cc3nnc(C4CC4)n3C)C2)oc1C` (centres undefined), 10.4%.

`N#Cc1ccc(N2CCN(C(=O)c3cc(C4CC4)[nH]n3)CC2)c(F)c1`: the cytotoxicity at 70.5 h was -8.69%. With `Cc1occc(=O)c1OCC(=O)N1CCc2ccccc2C1`, the cytotoxicity at 70.5 h stood at 7.13%.

With `CN1CCN(C2CCN(CCOc3ccc(Cl)cc3)CC2)C1=O`, the cytotoxicity at 70.5 h is -6.64%. Under `CCOCc1nc2c(c(NCCNC(C)=O)n1)CCN(C(C)=O)CC2` stands 16.6%.

On to `CN(Cc1nncn1C)c1nccc(C2CCCC2)n1`, for which the cytotoxicity at 70.5 h turned out to be 6.4%. `CC(C)[C@@H]1CN(Cc2cnc3c(S(C)(=O)=O)cnn3c2)C[C@H]1N(C)C`: the cytotoxicity at 70.5 h is -7.81%. Regarding `Cc1cc(CN2CCC(CNC(=O)C3(c4ccccc4)CC3)C2)[nH]n1` (centres undefined), the cytotoxicity at 70.5 h was 6.56%. For the molecule `O=C(O)c1cnc(N2CCC(O)CC2)nc1COc1cccc(F)c1`, the cytotoxicity at 70.5 h was -12.9%.

For the molecule `N#Cc1ccc(S(=O)(=O)NCCn2ccnc2)cc1Cl`, the cytotoxicity at 70.5 h is -0.547%. With `CCCNC(=O)COc1cc(C)c2c(C)nn(-c3ccccc3)c2n1`, the cytotoxicity at 70.5 h was -4.53%.

With `OC(CNCc1ccccc1C(F)(F)F)c1ccccc1` (centres undefined), the cytotoxicity at 70.5 h was -5.57%.

For `Cc1nnc(NC(=O)NCc2ccc(N3CCC(C)CC3)nc2)s1`, the cytotoxicity at 70.5 h was -8.92%.

In the case of `COCCC(=O)N1CCCC(CCC(=O)NCc2ccccc2F)C1` (centres undefined), the cytotoxicity at 70.5 h was -6.55%.

Consider `CC(C)(C)c1cc(=O)n2c(n1)SCC(C(=O)NCc1ccccn1)C2` (centres undefined), for which the cytotoxicity at 70.5 h was -5.78%.

With `Cc1cccc(CO[C@@H]2CC[C@H]3[C@H]2OCCN3Cc2nccs2)n1`, the cytotoxicity at 70.5 h is -0.937%. On to `Cn1nc(-c2ccc(F)cc2)cc1C(=O)NCCn1ccnc1`, for which the cytotoxicity at 70.5 h is -10.2%.

In the case of `Cc1n[nH]c(C)c1CCC(=O)N1CCC(O)(CN2CCN(C)CC2)C1` (centres undefined), the cytotoxicity at 70.5 h was -6.92%.

Turning to `Cc1nn(C)c2c(NC3CCCC3)nc(C3CC3)nc12`, the cytotoxicity at 70.5 h was -7.15%.

Consider `Cc1ccc(N2CCC3(CN(CCO)CCC3(F)F)C2)nn1` (centres undefined), for which the cytotoxicity at 70.5 h is -6.24%. `Cc1cc2cc(CNC(=O)c3cnn4c3OCCC4)ccc2[nH]1`: the cytotoxicity at 70.5 h was -1.4%. For `Cc1cc(=O)[nH]c(=O)n1COCc1ccccc1`, the cytotoxicity at 70.5 h was -18.6%. In the case of `Cn1ncc2c(N[C@H]3CCCC[C@@H]3O)nc(C(C)(C)C)nc21`, the cytotoxicity at 70.5 h is -2.77%.

On to `Cc1nonc1C(=O)N1CCCC(c2ncncc2-c2ccncc2)C1` (centres undefined), for which the cytotoxicity at 70.5 h is -28.8%. As for `COCC1Cn2nnc(-c3cnn(C)c3)c2CN1Cc1ccc(C)s1` (centres undefined), the cytotoxicity at 70.5 h was found to be 4.51%. As to `CCC(C(=O)NCc1csc(-c2ncccn2)n1)n1cccn1` (centres undefined), the cytotoxicity at 70.5 h is 13%. On to `Cc1cc(C(=O)NCC2CCCO2)c(C)n1-c1cccnc1` (centres undefined), for which the cytotoxicity at 70.5 h is -10.8%. In the case of `CN(C(=O)Cn1nc(-c2ccc(F)cc2)oc1=O)c1ccccc1` it was -11.5%; in that of `O=C(Nc1ccccc1)C1CCCN(c2cc(-n3cncn3)ncn2)C1` (centres undefined), -1.76%; in that of `CCc1nc2n(n1)CC(NCc1cc3ccccc3o1)CC2` (centres undefined), -8.62%. Turning to `CCc1nc(CNC(=O)c2ccc(C(C)N3CCCCC3)o2)cc(=O)[nH]1` (centres undefined), the cytotoxicity at 70.5 h is -6.44%. In the case of `O=C(Nc1ccccc1F)N(CCO)Cc1ccsc1`, the cytotoxicity at 70.5 h was determined as 31.8%. Turning to `CC(NC(=O)NC1CCN(Cc2ccncc2)CC1)c1ccc(F)cc1` (centres undefined), the cytotoxicity at 70.5 h was -13.2%.

Consider `CC1(C)CNC(=O)c2nc(CCN3CCCCC3CO)[nH]c2C1` (centres undefined), for which the cytotoxicity at 70.5 h was determined as 4.33%. Regarding `CN1CCN([C@@H]2CN(C(=O)CCOc3ccccc3)C[C@H]2O)CC1`, the cytotoxicity at 70.5 h worked out at 10.8%. As for `c1cnn(CC2CCCN2Cc2cn3ccsc3n2)c1` (centres undefined), the cytotoxicity at 70.5 h came out at 6.04%. Consider `CCc1noc(C)c1C(=O)N1CCCC1Cn1nc(C)cc1C` (centres undefined), for which the cytotoxicity at 70.5 h is -3.58%. `CCN(CC)Cc1nc(Cc2cccc(C(F)(F)F)c2)no1`: the cytotoxicity at 70.5 h was -7.89%.

Turning to `COc1cccc(C(=O)NCCCN2CCc3ccccc3C2)c1OC`, the cytotoxicity at 70.5 h was -11.3%. On to `Cc1ccc(OCc2nc(CNCCn3cccn3)cs2)cc1`, for which the cytotoxicity at 70.5 h is -2.86%.

In the case of `CCN(CC)C(=O)CNC(=O)c1ccc(-c2ccsc2)nc1C`, the cytotoxicity at 70.5 h was 59.9%. In the case of `Cc1ccc(-c2nc(CNC3CCc4ncnn4C3)cs2)cc1` (centres undefined), the cytotoxicity at 70.5 h amounted to 2.93%.

Take `CCN(CC)S(=O)(=O)CCNc1ncnc2cc(F)c(F)cc12`: the cytotoxicity at 70.5 h is -1.89%.

On to `CC(C)CN1C(=O)CO[C@@H]2CN(C(=O)C3CCOCC3)C[C@H]21`, for which the cytotoxicity at 70.5 h was -4.41%. On to `c1cnc(Nc2cncc(C3CCCN3)n2)cn1` (centres undefined), for which the cytotoxicity at 70.5 h is -3.08%. In the case of `COc1ccccc1CNc1ncc(-c2cc(C)no2)c(C(C)C)n1`, the cytotoxicity at 70.5 h is -9.02%. In the case of `CSc1ccc(S(=O)(=O)N2CCCCC2CCNC(C)=O)cc1` (centres undefined), the cytotoxicity at 70.5 h was -9.19%.

For `O=S(=O)(c1ccccc1)N1CCC2(CCCN2Cc2cccnc2)C1` (centres undefined), the cytotoxicity at 70.5 h was found to be 10.9%. Consider `CCN1CCCC12CCN(C(=O)c1nccn1C)CC2`, for which the cytotoxicity at 70.5 h was -7.36%. Turning to `Nc1ccnc(-c2cc(NC3CCNCC3)nc3[nH]ccc23)c1`, the cytotoxicity at 70.5 h was -3.27%.

`CS(=O)(=O)N1C[C@H](C(=O)Nc2cccnc2)[C@@H]2CCO[C@@H]2C1`: the cytotoxicity at 70.5 h is -4.86%. Consider `CC1CN(Cc2ccc(-n3cccn3)cc2)CCO1` (centres undefined), for which the cytotoxicity at 70.5 h came to 0.696%.

With `CS(=O)(=O)N1CCOCC2(CN(Cc3ccccn3)CCO2)C1` (centres undefined), the cytotoxicity at 70.5 h was -5.98%. Take `CCNc1ncc(C(=O)NC(c2ccccc2)c2ccco2)cn1` (centres undefined): the cytotoxicity at 70.5 h is -9.5%. In the case of `CCOCC(=O)N(Cc1ccccn1)Cc1ccccc1C`, the cytotoxicity at 70.5 h was -4.52%. Under `c1ccc(Cc2noc(CN3CCOC(Cn4cccn4)C3)n2)cc1` (centres undefined) stands -3.64%; under `FC1(F)CCN(Cc2ccncc2)CC12CCN(Cc1ccccn1)C2` (centres undefined), 14.3%; under `CCNC(=O)c1cc2n(n1)CCCO2`, -12.7%. In the case of `CC(=O)N1CCN(C(=O)NCc2ccccc2Cn2cncn2)CC1`, the cytotoxicity at 70.5 h is -14.9%. Turning to `O=C1CSC(c2ccsc2)c2c(n(C3CCOCC3)[nH]c2=O)N1` (centres undefined), the cytotoxicity at 70.5 h turned out to be 27.6%. Regarding `CCN(CC)C(=O)Cn1c(-c2ccc(Cl)cc2)nc(C)c(CCO)c1=O`, the cytotoxicity at 70.5 h turned out to be 0.81%. In the case of `CC(C)c1ccc(C(=O)O)cc1S(=O)(=O)Nc1ccc(=O)n(C)c1` it was 2.84%. Under `COc1ccc(Nc2cc(C)nc(C)n2)cc1N1CCCC1=O` stands -7.1%. Turning to `CCCn1cc(C(=O)N(C)Cc2nc(-c3ccccn3)no2)c(C)n1`, the cytotoxicity at 70.5 h is -8.48%.

In the case of `CN(C(=O)Cn1nc(-c2ccccc2F)ccc1=O)C1CCS(=O)(=O)C1` (centres undefined), the cytotoxicity at 70.5 h is -25.7%. With `Cc1cc(C)n(-c2cncc(NCCNC(=O)C3CCCC3)n2)n1`, the cytotoxicity at 70.5 h is -9.3%. For the molecule `CCOCc1ncn2c1CN(S(=O)(=O)c1ccc(C)cc1)CC2`, the cytotoxicity at 70.5 h is 35.9%.

Consider `CC(=O)N1CC(C)CN(C(=O)c2cscn2)c2ccccc21` (centres undefined), for which the cytotoxicity at 70.5 h turned out to be 2.08%.

As for `COc1ccc(C(=O)N2CCC(Oc3ccccc3)(C(=O)O)CC2)o1`, the cytotoxicity at 70.5 h turned out to be 2.93%. As for `Cn1cnnc1SCC(=O)NC1CC(=O)N(CCc2cccc(Cl)c2)C1` (centres undefined), the cytotoxicity at 70.5 h is -7.55%. Under `CCN(CCNC(=O)c1cccnc1OCCOC)C1CC1` stands 0.553%; under `CCOCC1CN(Cc2cnn(C)c2)Cc2ncn(C)c21` (centres undefined), -9.79%; under `CC(C)=CCN1C[C@H]2CC[C@@H]1CN(C(=O)Cc1c(C)nc(C)[nH]c1=O)C2`, 1.03%. Consider `Cc1ccc(CN2CC(C(=O)Nc3ccccc3)C3(CCOCC3)C2)o1` (centres undefined), for which the cytotoxicity at 70.5 h was -12.3%. On to `CCCn1ncc2c(C(=O)NC(C)Cn3cccn3)cc(C3CC3)nc21` (centres undefined), for which the cytotoxicity at 70.5 h was -13.1%.

As to `CCC(CO)N(Cc1ccncc1)Cc1c[nH]nc1-c1ccc(F)cc1` (centres undefined), the cytotoxicity at 70.5 h was -7.22%.

As for `c1cc2c(cc1-c1noc3c1CN(C1CCSCC1)CC3)OCO2`, the cytotoxicity at 70.5 h amounted to 12.6%. For `O=C(CN1CCCc2c(F)cc(Br)cc21)N1CCN(C(=O)C2CC2)CC1`, the cytotoxicity at 70.5 h came out at 17.8%. Under `CCNC(=O)c1cnc(Cc2ccc(F)cc2)s1` stands -6.25%. With `Cc1nn(C)c2nc(N(C)CC3CCN(CC(C)C)C3)sc12` (centres undefined), the cytotoxicity at 70.5 h came to 1.29%. Consider `O=C(Cc1cccc(F)c1)NCCNCc1cccc(O)c1`, for which the cytotoxicity at 70.5 h was determined as 0.873%.

Take `Cc1nc(COC[C@]23COC[C@H]2CN(Cc2ccoc2)C3)cs1`: the cytotoxicity at 70.5 h was -9.47%. `CCC(=O)N1CCN(c2ccc(C(=O)OC)cc2)CC1C` (centres undefined): the cytotoxicity at 70.5 h was -0.474%. For the molecule `c1cc(-c2nnn3c2COC(CNCc2nccs2)C3)ccn1` (centres undefined), the cytotoxicity at 70.5 h is -0.24%.

In the case of `CC(C)c1n[nH]c(C2CN(C(=O)Cn3ccccc3=O)CCO2)n1` (centres undefined), the cytotoxicity at 70.5 h was -2.65%.

Take `COc1ccc2oc(-c3cn(C)nc3C)c(O)c(=O)c2c1`: the cytotoxicity at 70.5 h is -1.34%.

For the molecule `COCCN1CCN(Cc2ccc3nsnc3c2)[C@H]2CS(=O)(=O)C[C@H]21`, the cytotoxicity at 70.5 h was -5.97%. For the molecule `CCC(O)CN(Cc1ccccc1)S(=O)(=O)c1cnc(C)s1` (centres undefined), the cytotoxicity at 70.5 h was -9.64%.

As for `CCn1cc(CN2CCN(C(=O)c3cc(Br)cs3)CC2)c(C)n1`, the cytotoxicity at 70.5 h was 22.9%.

Turning to `CCN(CC)S(=O)(=O)N1CCCN(CC2CCCO2)CC1` (centres undefined), the cytotoxicity at 70.5 h was 23.8%. For the molecule `Cn1cccc1CCC(=O)N1CCC2(CC1)c1ccccc1CC2O` (centres undefined), the cytotoxicity at 70.5 h was -12.2%. Take `O=C(COCc1nc(-c2ccncc2)no1)N1CCCC1`: the cytotoxicity at 70.5 h is -4.88%. Turning to `Cc1nc(-c2ccc(S(=O)(=O)N3CCSC3)cc2)co1`, the cytotoxicity at 70.5 h was -10.2%. On to `COc1ccc(S(=O)(=O)N2C[C@H](OC)[C@]3(CCCO3)C2)cc1`, for which the cytotoxicity at 70.5 h is -16.2%. As for `CCCC(=O)Nc1sc(C(=O)OCC)c(C)c1C#N`, the cytotoxicity at 70.5 h was -2.39%.
